Data on three compounds can be found in patent publication US20200369716A1, “SOLID-PHASE SYNTHESIS OF PROTEIN-POLYMER CONJUGATES ON IMMOBILIZATION SUPPORTS” (Carnegie Mellon University, priority 2017, published 2020).

One may read the Km as the substrate concentration at which the rate is half of its maximum. The term kcat denotes the number of substrate molecules converted per active site and unit of time at saturation. The kcat/Km is the turnover number divided by the Michaelis constant.

The subject of data set [1] is C[C@H](NC(=O)CCC(=O)O)C(=O)N[C@@H](C)C(=O)N1CCC[C@H]1C(=O)N[C@@H](Cc1ccccc1)C(=O)Nc1ccc([N+](=O)[O-])cc1. Briefly: purified protein, by the assay type. As to conditions: other: native CT, pH 8, 25° C.
Description: Suc-AAPF-pNA (0-125 μL of 9.60 mM in DMSO) was mixed with sodium phosphate buffer (865-950 μL of 100 mM buffer, pH 8). Native CT or conjugate solutions (10 μL, 3.9 μM of CT) was added to the substrate solution. The initial substrate hydrolysis rate was monitored by recording the increase in absorbance at 412 nm using a UV-VIS absorbance spectrometer with a temperature-controlled cell holder at 25° C. Michaelis-Menten parameters were determined by nonlinear curve fitting of initial rate versus substrate concentration plots using Enzfitter software.
Data set [2] has as its target T1, acetylcholinesterase (AChE) from Electrophorus electricus (electric eel, type VI-S), AChE-pCBMA conjugate by PARIS (Electrophorus electricus, UniProt O42275).
T1 construct: purchased Sigma Aldrich (St Louis, Mo.); host or cells: Electrophorus electricus (electric eel)
Briefly: Michaelis-Menten kinetics of AChE-catalyzed hydrolysis of acetylthiocholine iodide, PARIS conjugate. Format: biochemical. The following applies: pH 7.4, 37° C. How it is done: (§1) α-Chymotrypsin (CT) from bovine pancreas (type II), lysozyme from chicken egg white, acetylcholinesterase from Electrophorus electricus (electric eel, type VI-S), uricase from porcine liver (type V), and agarase from Pseudomonas atlantica were purchased from Sigma Aldrich (St Louis, Mo.). Avidin from Gallus gallus egg white was purchased from Lee Biosolutions (Maryland Heights, Mo.). Protein surface active ATRP initiator (NHS-ATRP initiator) was prepared as described elsewhere (Murata et al., supra).
Acetylthiocholine iodide (0-100 μL of 10 mM in 100 mM sodium phosphate buffer (pH 7.4)) and 10 μL of DTNB solution (50 mM in DMSO) were mixed with 100 mM sodium phosphate buffer (980-880 μL, pH 7.4). Conjugate solution (10 μL, 5.5 μM of AChE) was added to the substrate solution. The initial substrate hydrolysis rate was monitored by recording the increase in absorbance at 412 nm using a UV-VIS absorbance spectrometer with a temperature-controlled cell holder at 37° C. Michaelis-Menten parameters were determined by nonlinear curve fitting of initial rate versus substrate concentration plots using Enzfitter software.

Data set [3] deals with Avidin from Gallus gallus egg white, Avi-pCBMA conjugate by solution synthesis (Gallus gallus, UniProt P02701). Briefly: Binding affinity of HABA to Avi-pCBMA conjugate, solution. As to conditions: 300 μM HABA, 1 minute, room temperature, [Avi]0 = 2 μM, ε500 = 34000 M^−1. How it is done: as §1
(§2) Absorption at 500 nm of 300 μM HABA solution in phosphate buffered saline without calcium or magnesium (986 μL, Lonza) was measured using UV-VIS spectrometer. 16 μL, of the conjugates solution (1.25 μM of avidin in deionized water) was added to the HABA solution and incubated at room temperature for 1 minute, and then absorption at 500 nm was measured. Change in absorbance at 500 nm was used to determine bound HABA to the conjugate.

Data set [4] has as its target T2, Avidin from Gallus gallus egg white, Avi-pCBMA conjugate by PARIS (Gallus gallus, UniProt P02701).
T2 construct: purchased Lee Biosolutions (Maryland Heights, Mo.); host or cells: Gallus gallus egg white
Description: Binding affinity of HABA to Avi-pCBMA conjugate, PARIS. The following applies: 300 μM HABA. How it is done: as §1, §2

T2 sequence (P02701 25-152): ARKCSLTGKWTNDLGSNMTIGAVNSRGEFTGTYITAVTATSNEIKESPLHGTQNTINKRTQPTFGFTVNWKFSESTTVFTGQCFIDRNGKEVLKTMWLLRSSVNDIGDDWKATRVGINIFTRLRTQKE
T1 sequence (O42275 24-633): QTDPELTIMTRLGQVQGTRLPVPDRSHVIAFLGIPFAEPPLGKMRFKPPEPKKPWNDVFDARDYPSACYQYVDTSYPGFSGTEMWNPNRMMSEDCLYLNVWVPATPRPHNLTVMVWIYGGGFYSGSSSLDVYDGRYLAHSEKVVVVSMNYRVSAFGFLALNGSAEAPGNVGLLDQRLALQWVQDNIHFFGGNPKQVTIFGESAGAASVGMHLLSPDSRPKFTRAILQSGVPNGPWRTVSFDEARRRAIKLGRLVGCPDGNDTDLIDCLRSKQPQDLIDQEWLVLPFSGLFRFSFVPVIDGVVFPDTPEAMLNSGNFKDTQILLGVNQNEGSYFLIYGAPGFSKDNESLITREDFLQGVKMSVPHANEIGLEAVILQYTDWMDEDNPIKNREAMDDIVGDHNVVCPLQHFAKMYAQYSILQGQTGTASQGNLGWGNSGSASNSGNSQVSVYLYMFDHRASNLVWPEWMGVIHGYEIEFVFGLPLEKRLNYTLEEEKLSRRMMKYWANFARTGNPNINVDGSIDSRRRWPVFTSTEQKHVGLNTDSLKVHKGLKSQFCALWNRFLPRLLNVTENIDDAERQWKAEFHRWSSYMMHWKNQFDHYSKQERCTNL
Avidin from Gallus gallus egg white, Avi-pCBMA conjugate by solution synthesis, sequence (P02701 25-152): as the sequence (P02701 25-152) above

Regarding “α-Chymotrypsin (CT) from bovine pancreas (type II), native (Bos taurus)”, in data set [1], the Km worked out at 80.3 ± 13.1 µM, the kcat was 34.6 ± 1.4 s⁻¹ and the kcat/Km stood at 431000 ± 72000 M⁻¹ s⁻¹.

With `CC(=O)SCC[N+](C)(C)C.[I-]` [acetylthiocholine iodide, Acetylthiocholine iodide], the “Ratio of enzymatic efficiency (PARIS:solution)” value in data set [2] came to 1.09 ± 0.08.

Regarding `O=C(O)c1ccccc1/N=N/c1ccc(O)cc1` [HABA, 4′-hydroxyazobenzene-2-carboxylic acid], the “Bound HABA” value in data set [3] stood at 0.92 ± 0.04 µM; in data set [4] (PARIS Avi-pCBMA, 1 minute, room temperature, [Avi]0 = 2 μM, ε500 = 34000 M^−1), 0.93 ± 0.13 µM. Besides, the “Ratio of binding affinity of HABA (PARIS:solution)” value in data set [4] (Avi-pCBMA, PARIS:solution) is on record as 1.01 ± 0.14.
